In ChEMBL document CHEMBL5244229, “Thiazole-containing compounds as therapeutic targets for cancer therapy” (Eur J Med Chem, 2020):
Values after ≈ are worked out from the molar mass of the structure shown.

Key:
[1] = Anticancer activity against human LNCaP/AR cells; assay type: functional, cell-based
[2] = tested on: NCI-H460; assay: Potency index, ratio of MKT-077 IC50 to test compound IC50 for antitumor activity against human NCI-H460 cells; assay type: functional
[3] = tested on: NCI-H460; assay: Antitumor activity against human NCI-H460 cells; assay type: functional, cell-based
[4] = tested on: A549; assay: Antiproliferative activity against human A549 cells relative to control; assay type: functional
[5] = tested on: HCT-8; assay: Anticancer activity against human HCT-8 cells at 5 microg/ml relative to control; assay type: functional; conditions: dose 5 µg/ml
[6] = tested on: Cytochrome P450; assay: Inhibition of CYP450 in human liver microsomes; assay type: ADME, Microsome
[7] = tested on: MCF7; assay: Cytotoxicity against human MCF7 cells; assay type: functional, cell-based
[8] = tested on: HCC 2998; assay: Cytotoxicity against human HCC 2998 cells; assay type: functional
[9] = tested on: IGROV-1; assay: Cytotoxicity against human IGROV-1 cells; assay type: functional
[10] = tested on: NCI-H226; assay: Cytotoxicity against human NCI-H226 cells; assay type: functional
[11] = tested on: OVCAR-5; assay: Cytotoxicity against human OVCAR-5 cells; assay type: functional
[12] = tested on: OVCAR-4; assay: Cytotoxicity against human OVCAR-4 cells; assay type: functional
[13] = tested on: NCI-H460; assay: Cytotoxicity against human NCI-H460 cells; assay type: functional, cell-based
[14] = tested on: HCT-116; assay: Antiproliferative activity against human HCT-116 cells assessed as cell growth inhibition; assay type: functional
[15] = Anticancer activity against human Melanoma tumor cell line; assay type: functional
[16] = tested on: Ovarian carcinoma cell; assay: Anticancer activity against human Ovarian carcinoma cell; assay type: functional
[17] = Anticancer activity against human Colon carcinoma cell; assay type: functional
[18] = tested on: SW-620; assay: Antiproliferative activity against human SW620 cells assessed as reduction in cell viability incubated for 4 days by MTT assay; assay type: functional, cell-based; conditions: SW-620, 96 h
[19] = tested on: HepG2; assay: Antiproliferative activity against human HepG2 cells assessed as reduction in cell viability incubated for 4 days by MTT assay; assay type: functional, cell-based; conditions: HepG2, 96 h
[20] = Antiproliferative activity against human SK-RC-52 cells assessed as reduction in cell viability incubated for 4 days by MTT assay; assay type: functional, cell-based; conditions: SK-RC-52, 96 h
[21] = tested on: A549; assay: Antiproliferative activity against human A549 cells assessed as reduction in cell viability incubated for 4 days by MTT assay; assay type: functional, cell-based; conditions: A549, 96 h
[22] = tested on: A-431; assay: Antiproliferative activity against human A-431 cells assessed as reduction in cell viability incubated for 4 days by MTT assay; assay type: functional, cell-based; conditions: A-431, 96 h
[23] = tested on: HCT-116; assay: Anticancer activity against human HCT-116 cells; assay type: functional, cell-based
[24] = tested on: MV4-11; assay: Antiproliferative activity against human MV4-11 cells assessed as reduction in cell viability incubated for 24 hrs by Celltiter-Glo cell viability assay; assay type: functional, cell-based; conditions: MV4-11, 24 h
[25] = tested on: HCT-116; assay: Antiproliferative activity against human HCT-116 cells assessed as reduction in cell viability incubated for 24 hrs by Celltiter-Glo cell viability assay; assay type: functional, cell-based; conditions: HCT-116, 24 h
[26] = tested on: MCF7; assay: Antiproliferative activity against human MCF7 cells assessed as reduction in cell viability incubated for 24 hrs by Celltiter-Glo cell viability assay; assay type: functional, cell-based; conditions: MCF7, 24 h
[27] = tested on: BALB/3T3; assay: Antiproliferative activity against mouse BALB/3T3 cells assessed as reduction in cell viability incubated for 24 hrs by Celltiter-Glo cell viability assay; assay type: functional, cell-based; conditions: BALB/3T3, 24 h
[28] = tested on: MV4-11; assay: Anticancer activity against human MV4-11 cells; assay type: functional, cell-based
[29] = tested on: HepG2; assay: Antiproliferative activity against human HepG2 cells assessed as reduction in cell viability; assay type: functional, cell-based
[30] = tested on: Hs-578T; assay: Antiproliferative activity against human Hs-578T cells assessed as reduction in cell viability; assay type: functional, cell-based
[31] = tested on: HeLa; assay: Antiproliferative activity against human HeLa cells assessed as reduction in cell viability; assay type: functional, cell-based
[32] = tested on: MDA-MB-231; assay: Antiproliferative activity against human MDA-MB-231 cells assessed as reduction in cell growth after 72 hrs; assay type: functional, cell-based; conditions: MDA-MB-231, 72 h
[33] = tested on: MDA-MB-231; assay: Antiproliferative activity against human MDA-MB-231 cell line assessed as cell growth inhibition by MTT assay; assay type: functional, cell-based
[34] = tested on: HeLa; assay: Antiproliferative activity against human HeLa cells assessed as cell growth inhibition by MTT assay; assay type: functional, cell-based
[35] = tested on: HeLa; assay: Antiproliferative activity against human HeLa cells assessed as reduction in cell growth after 72 hrs; assay type: functional, cell-based
[36] = Antiproliferative activity against human HLF cells; assay type: functional
[37] = tested on: HEK293; assay: Antiproliferative activity against human HEK293 cells; assay type: functional
[38] = tested on: HCT-116; assay: Antiproliferative activity against human HCT-116 cells assessed as reduction in cell viability; assay type: functional, cell-based
[39] = tested on: A549; assay: Antiproliferative activity against human A549 cells; assay type: functional, cell-based
[40] = tested on: HepG2; assay: Cytotoxicity against human HepG2 cells assessed as reduction in cell viability at 200 uM incubated for 24 hrs by MTT assay; assay type: functional, cell-based; conditions: HepG2, 24 h
[41] = Cytotoxicity against human HPDE cells assessed as induction of cell death at 5.51 uM; assay type: functional
[42] = tested on: HepG2; assay: Anticancer activity against human HepG2 cells assessed as inhibition of cell proliferation at 50 uM measured after 24 hrs by MTT assay; assay type: functional, cell-based; conditions: HepG2, 24 h
[43] = tested on: MCF7; assay: Induction of apoptosis in human MCF7 cells assessed as dead cells at 10 uM measured after 6 hrs by annexin V-FITC/propidium iodide staining based flow cytometry analysis (reference value: 5.14+/-0.44%); assay type: functional
[44] = tested on: NCI-H460; assay: Cytotoxicity against human NCI-H460 cells assessed as inhibition of cell growth; assay type: functional
[45] = tested on: SF-268; assay: Cytotoxicity against human SF-268 cells assessed as inhibition of cell growth; assay type: functional
[46] = tested on: MCF7; assay: Cytotoxicity against human MCF7 cells assessed as inhibition of cell growth; assay type: functional
[47] = tested on: A549; assay: Cytotoxicity against human A549 cells assessed as inhibition of cell growth by MTT assay; assay type: functional, cell-based
[48] = tested on: A549; assay: Antiproliferative activity against human A549 cells assessed as reduction in cell viability; assay type: functional, cell-based
[49] = tested on: HepG2; assay: Anticancer activity against human HepG2 cells assessed as inhibition of cell proliferation at 25 uM measured after 24 hrs by MTT assay; assay type: functional, cell-based; conditions: HepG2, 24 h
[50] = target: Tubulin (Bos taurus, UniProt Q6B856+Q862L2+Q862F3); assay: Antitubulin activity against bovine brain tubulin polymerization by spectrophotometric method
[51] = tested on: Colon 26; assay: Cytotoxicity against mouse Colon 26 cells assessed as inhibition of cell growth; assay type: functional, cell-based
[52] = tested on: Colon 26; assay: Antitumor activity against mouse Colon 26 cells xenografted in mouse assessed as tumor suppression rate at 40 mg/kg, po; assay type: functional
[53] = tested on: Ca-Ski; assay: Anticancer activity against human Ca-Ski cells assessed as inhibition of cell growth; assay type: functional, cell-based
[54] = tested on: SK-NEP-1; assay: Anticancer activity against human SK-NEP-1 cells assessed as inhibition of cell growth; assay type: functional, cell-based
[55] = tested on: HepG2; assay: Cytotoxicity against human HepG2 cells assessed as reduction in cell viability at 200 uM incubated for 48 hrs by MTT assay; assay type: functional
[56] = tested on: A549; assay: Anticancer activity against human A549 cells assessed as reduction of cell viability at 100 micromol relative to control; assay type: functional; conditions: dose 100 µmol
[57] = tested on: A549; assay: Anticancer activity against human A549 cells assessed as reduction of cell viability at 25 micromol relative to control; assay type: functional; conditions: dose 25 µmol
[58] = tested on: PC-3; assay: Anticancer activity against human PC-3 cells; assay type: functional, cell-based
[59] = tested on: PC-3; assay: Cytotoxicity against human PC-3 cells; assay type: functional

Compound: CC(=O)c1cccc(-c2csc(N3CCOCC3)n2)c1
- IC50 [1]: 380 nM

Compound: CCN1C(=O)/C(=C2\Sc3ccccc3N2C)S/C1=N\[n+]1cccc2ccccc21.[I-]
- Ratio IC50 [2]: 216.7
- IC50 [3]: 6 nM

Compound: Cc1cc(Cl)ccc1NC(=O)c1sc(-c2ccccc2Cl)nc1C(F)(F)F
- Activity [4]: 48%
- Activity [5]: 40%

Compound: Cc1ncc(C2=CCC3C4CC=C5CC(O)CCC5(C)C4CCC23C)s1 (centres undefined)
- inhibition (INH) [6]: 72.1%

Compound: Cc1cc(-c2nc3cc(F)ccc3s2)ccc1N
- GI50 [7]: < 100 nM
- GI50 [8]: < 10 nM
- GI50 [9]: < 10 nM
- GI50 [10]: < 10 nM
- GI50 [11]: < 100 nM
- GI50 [12]: < 100 nM
- GI50 [13]: < 10 nM

Compound: Clc1nccc2c(-c3csc(-c4c[nH]c5ncc(Br)cc45)n3)c[nH]c12
- GI50 [14]: 2350 nM

Compound: Cc1nn2c(SCC(=O)Nc3nccs3)nc3ccccc3c2nc1=O
- GI50 [15]: 480 nM
- GI50 [16]: 250 nM
- GI50 [17]: 450 nM

Compound: O=C(CCl)Nc1ccc2nc(SCC(=O)Nc3ccc(Br)cn3)sc2c1
- IC50 [18]: 4.3 nM
- IC50 [19]: 48 nM
- IC50 [20]: 1.2 nM
- IC50 [21]: 44 nM
- IC50 [22]: 20 nM

Compound: O=S(=O)(Nc1ccc(-c2csc(N/N=C/c3ccc(N(CCCl)CCCl)cc3)n2)cc1)c1c(F)c(F)c(F)c(F)c1F
- IC50 [23]: 3.02 µg/mL (≈ 4.54 µM)
- IC50 [24]: 2.17 µg/mL (≈ 3.27 µM)
- IC50 [25]: 3.02 µg/mL (≈ 4.54 µM)
- IC50 [26]: 3.42 µg/mL (≈ 5.15 µM)
- IC50 [27]: 3.2 µg/mL (≈ 4.82 µM)
- IC50 [28]: 2170 nM

Compound: CNc1nc(CC(=O)N/N=C/c2coc3ccccc3c2=O)cs1
- IC50 [29]: 5080 nM
- IC50 [30]: 4950 nM
- IC50 [31]: 823 nM

Compound: Cc1csc(N/N=C/c2ccccc2)n1
- IC50 [32]: 3.92 µg/mL (≈ 18 µM)
- IC50 [33]: 3.92 µg/mL (≈ 18 µM)
- IC50 [34]: 11.4 µg/mL (≈ 52.5 µM)
- IC50 [35]: 11.4 µg/mL (≈ 52.5 µM)

Compound: CCCCCCCC(=O)SCC/C=C/[C@@H]1CC(=O)NCc2nc(cs2)C2=N[C@@](C)(CS2)C(=O)N[C@@H](c2ccc(O)cc2)C(=O)O1
- GI50 [36]: > 100000 nM
- GI50 [37]: > 100000 nM
- IC50 [38]: 390 nM
- GI50 [39]: 1460 nM

Compound: c1ccc2cc(-c3csc(N4CCCC4)n3)ccc2c1
- IC50 [40]: 5000 nM

Compound: C/C(=N/Nc1nc(-c2cc3ccccc3oc2=O)cs1)c1cc2ccccc2oc1=O
- Activity [41]: 50%

Compound: NS(=O)(=O)c1ccc(N2C(=O)CSC2c2ccc([N+](=O)[O-])cc2)cc1 (centres undefined)
- IC50 [42]: 46000 nM

Compound: COc1ccc(-c2nn(-c3ccccc3)cc2/C=N/Nc2nc(-c3ccc(Cl)cc3)cs2)cc1
- Activity [43]: 25.61%

Compound: C/C(=N/NC(=O)c1sc(=S)n(-c2ccccc2)c1N)c1cccnc1
- GI50 [44]: 94 nM
- GI50 [45]: 94 nM
- GI50 [46]: 42.8 nM

Compound: COC(=O)Nc1nc2cc(C(=O)c3cccs3)ccc2[nH]1 [NOCODAZOLE]
- IC50 [47]: 1810 nM

Compound: COc1ccc(-c2csc(Nc3ccc(OC)cc3OC)n2)cc1
- IC50 [48]: 860 nM

Compound: Cc1ccc(C2NC(=S)Nc3nc(Nc4ccc(S(N)(=O)=O)cc4)sc32)cc1 (centres undefined)
- IC50 [49]: 43000 nM

Compound: COc1ccc(C2SC(N)=NC2c2cc(OC)c(OC)c(OC)c2)cc1N (centres undefined)
- IC50 [50]: 1000 nM
- IC50 [51]: 57.5 nM
- Activity [52]: 75%

Compound: CO[C@@H]1C[C@H](C[C@@H](C)[C@@H](OC(=O)C2CCCCN2C)C(C)C)CC[C@H]1OCC/N=c1\sc2cc(Cl)ccc2n1C (some centres undefined)
- IC50 [53]: 8300 nM
- IC50 [54]: 9600 nM

Compound: CC1CCN(c2nc(-c3ccc4ccccc4c3)cs2)CC1
- Activity [55]: 57%

Compound: c1ccc(Nc2nc3ccc4cn[nH]c4c3s2)cc1
- % viability reduction [56]: 78.8%
- % viability reduction [57]: 72.1%

Compound: Cc1c(-c2csc(N)n2)sc2sc(-c3csc(N)n3)c(-c3ccccc3)c12
- IC50 [58]: 24200 nM
- Activity [59]: >30%
